Results reported in PMC11091243, “PD-L1 targeted peptide demonstrates potent antitumor and immunomodulatory activity in cancer immunotherapy” (Frontiers in Immunology, 2024).

Legend:
PD-1/PD-L1 binding = target: T1, PD-1/PD-L1 binding (Homo sapiens, UniProt Q9NZQ7); experiment: ELISA competition of peptides with PD-1 for binding to PD-L1; details: n = 3, effect increases with peptide concentration
T1 construct: PD-1: 10377-H08H
Experimental: After seven phages were grown and purified, the solution was diluted 10 times to produce eight gradients. To ascertain the phage’s affinity for PD-L1, an ELISA test was run. Briefly, 96-well plates were filled with 150 µL of PD-L1 ([…]) in assay diluent (BioLegend, San Diego, CA), and incubated at 4°C overnight. 5% BSA in water was used to block the wells for two hours at 4°C. Following washing, 100 µL of phage diluent was added to each well, and they were shaken for two hours at room temperature. The wells were then treated with HRP-conjugated anti-M13 antibody at dose of 1:5000. With 100 µL of HRP substrate, the reaction was observed, and the OD410 was determined. By deducting the OD value of each phage binding to BSA-coated wells from the OD value of that phage binding to PD-L1, the specific binding of each phage to PD-L1 was computed. Three duplicate runs of this assay were made. GraphPad Prism 6 software was used to compute each phage binding affinity by nonlinear regression and convert it to a Scatchard plot. ELISA was used to evaluate the candidate peptides capacity to inhibit PD1/PD-L1 binding. The subsequent stages were the same as those previously outlined. Following incubation, OD410 was determined by goat anti-rabbit monoclonal antibody that had been HRP-labeled and rabbit anti-human PD-L1 protein monoclonal antibody.
To assess the effect of PPL-C peptide interference, PD-L1 binding to PD-1 was investigated using ELISA and cell-based analysis. For the ELISA, 100 μL of mouse PD-L1 in PBS was coated in each well of a 96-well plate and incubated the plate at 4°C overnight. On the second day, 1% BSA in PBST was used to block the plate. Each well was then filled with 200 nmol/L biotinylated PD-1 and FITC-labeled PPL-C peptides (at final concentrations of 40, 20, 10, 5, or 2.5 μmol/L) before 1.5 hours incubating at room temperature. After two PBST washes, the relative FITC fluorescence intensity was measured using a Cytation 3 instrument. […] After two PBST washes, the Cytation 3 device was used to detect PE fluorescence intensity. […] Samples were analyzed by flow cytometry.

human PD-L1 (hPD-L1) = human PD-L1 (hPD-L1) (Homo sapiens, UniProt Q9NZQ7); experiment: Fluorescence-based ELISA, binding specificity; details: 20 μmol/L FITC-labeled peptide, 1.5 h room temperature, n = 3
Experimental: (§1) Fluorescence-based ELISA and cell-based tests were used to examine the binding specificity of PPL-C to PD-L1. To perform the ELISA, fluorescent plates were coated with 100 μL human PD-L1 (hPD-L1), mouse PD-L1 (mPD-L1), and BSA in PBS (pH 7.4) overnight at 4°C, respectively. Blocked the plates with 1% BSA (in PBST) for an hour at room temperature and rinsed twice with PBST. Then added peptides (20 μmol/L FITC-labeled PPL-C/Control peptide) and incubated for 1.5 hours at room temperature. With excitation at 488 nm and emission at 515 nm, the Cytation 3 instrument (BioTek) was used to measure the relative fluorescence intensity. Both attached and detached cells were used in the cell-based flow cytometry analysis. […] After that, cells were treated for 40 minutes at 4°C on an inversion shaker with PD-L1 antibody from Biolegend and 4 μmol/L FITC-labeled peptides (PPL-C/Control peptide). Each tube was washed twice with PBS following incubation and flow cytometry was carried out using a FACSort device. FlowJo software was used to evaluate the data that was acquired.

mouse PD-L1 (mPD-L1) = mouse PD-L1 (mPD-L1) (Mus musculus, UniProt Q9EP73); experiment: Fluorescence-based ELISA, binding specificity; details: 20 μmol/L FITC-labeled peptide, 1.5 h room temperature, n = 3
Experimental: as §1

MDA-MB-231 cells = experiment: Flow cytometry binding to MDA-MB-231 cells; assay type: cell-based, human; details: higher PD-L1 expression than MC38
Experimental: as §1

LLC cells = experiment: Flow cytometry binding to LLC cells; assay type: cell-based, mouse; details: higher PD-L1 expression than MC38
Experimental: as §1

CT26 cells [1] = experiment: CCK8 proliferation assay on CT26 cells; assay type: cell-based, mouse; details: 0.1-1 mg/ml, 8 or 24 h, CCK8, n = 3
Experimental: To observe the impact of PPL-C on tumor cells and lymphocyte proliferation, the Counting Kit 8 (CCK8) reagent was employed. 20,000 cells/well were cultured in 96-well plates. Cells were treated for 8 or 24 hours with PPL-C (0.1, 0.25, 0.5, and 1 mg/ml) or not. Following the manufacturer guidelines, 10 µl of the CCK8 reagent (from Biotech Bioengineering, Cat: E606335) was applied to each well two hours before the incubation period ended. Using an ELISA plate reader from Molecular Devices (United States) the sample absorbance was calculated at 450 nm. To ensure repeatability, each experiment was replicated. By assessing absorbance at 450 nm, the CCK8 assay measures cell viability and proliferation.

Swiss mice = assay type: in vivo, mouse; details: twice intraperitoneal 180 mg/kg (30 times effective amount), observed 14 days, data not shown
CT26 cells [2] = experiment: Cytotoxicity of spleen lymphocytes of treated mice against CT26 cells (CCK8); assay type: cell-based, mouse; details: CT26:lymphocyte 1:2, 48 h, CCK8, n = 6, versus untreated and control peptide groups
Experimental: After 14 consecutive days of administration, total lymphocytes were isolated from mouse spleens using Ficoll density gradient fractionation, which was provided by Shanghai Biotech Bioengineering. Before co-incubation with lymphocytes, CT26 cells were treated with 100 μg/mL mitomycin C (MMC) for 2 hours for […] experiments. For cytotoxicity experiments, about 1×10^6 tumor cells were seeded in each well with a CT26: lymphocyte ratio of 1: 2 in 200 μL RIPM medium plus 10% FBS for 48 h. A corresponding negative control group was also designed. During the final two hours of the incubation, 10 µL of CCK8 reagent was added to each well following the manufacturer’s instructions (Biotech Bioengineering Cat: E606335). Using an ELISA plate reader (Molecular Devices, USA) the absorbance was determined at 450 nm. There were three duplicates of each experiment.

Chain of human PD-L1 (hPD-L1) (Q9NZQ7 19-290): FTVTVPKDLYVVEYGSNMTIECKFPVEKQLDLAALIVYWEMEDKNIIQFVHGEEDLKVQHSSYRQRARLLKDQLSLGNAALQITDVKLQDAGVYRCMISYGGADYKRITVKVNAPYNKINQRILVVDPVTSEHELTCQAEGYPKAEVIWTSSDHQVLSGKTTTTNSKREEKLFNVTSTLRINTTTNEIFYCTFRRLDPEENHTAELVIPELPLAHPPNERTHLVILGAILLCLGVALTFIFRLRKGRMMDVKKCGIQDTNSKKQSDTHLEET
Chain of mouse PD-L1 (mPD-L1) (Q9EP73 19-290): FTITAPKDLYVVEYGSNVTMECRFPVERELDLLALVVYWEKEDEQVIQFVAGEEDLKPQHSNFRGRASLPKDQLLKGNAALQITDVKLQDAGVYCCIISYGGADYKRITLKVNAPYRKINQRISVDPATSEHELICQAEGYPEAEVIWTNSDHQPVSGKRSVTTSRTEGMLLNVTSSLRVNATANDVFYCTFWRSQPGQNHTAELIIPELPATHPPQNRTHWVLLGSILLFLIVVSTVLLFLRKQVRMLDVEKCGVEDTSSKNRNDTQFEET
T1 sequence (Q9NZQ7 19-239 limits assumed): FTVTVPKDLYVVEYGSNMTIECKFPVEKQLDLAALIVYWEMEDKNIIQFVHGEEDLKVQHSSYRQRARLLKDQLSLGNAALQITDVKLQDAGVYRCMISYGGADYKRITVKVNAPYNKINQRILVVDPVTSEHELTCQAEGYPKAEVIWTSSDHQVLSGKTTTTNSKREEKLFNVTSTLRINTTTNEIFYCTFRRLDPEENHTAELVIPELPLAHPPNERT

Structure (SMILES): CC(C)[C@H](NC(=O)[C@H](CO)NC(=O)[C@@H](NC(=O)[C@@H](N)CO)C(C)C)C(=O)N[C@@H](CO)C(=O)N[C@@H](Cc1c[nH]cn1)C(=O)N[C@@H](Cc1ccccc1)C(=O)N[C@@H](CCC(N)=O)C(=O)N[C@@H](CCCCN)C(=O)N[C@H](C(=O)N[C@@H](Cc1c[nH]c2ccccc12)C(=O)N[C@H](C(=O)N[C@H](C(=O)NCC(=O)NCC(=O)NCC(=O)N[C@@H](CO)C(=O)N[C@@H](CCCCN)C(N)=O)C(C)C)C(C)C)C(C)C [PPL-C]
- Competition with PD-1 to bind PD-L1 (blocking of PD-L1/PD-1) (PD-1/PD-L1 binding): significant blocking effect
- Binding to hPD-L1 (human PD-L1 (hPD-L1)): cross-reactivity
- Binding to mPD-L1 (mouse PD-L1 (mPD-L1)): higher specificity
- Affinity to MDA-MB-231 cells (MDA-MB-231 cells): higher affinity
- Affinity to LLC cells (LLC cells): higher affinity
- Growth of CT26 cells after peptide administration (direct cytotoxicity) (CT26 cells [1]): grew normally
- Acute toxicity (Swiss mice): no acute toxicity
- Effect of lymphocytes from treated mice on tumor cell proliferation (CT26 cells [2]): significantly inhibited tumor cell proliferation
